Results on 18 compounds are retold here after PubChem BioAssay (NCI).

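A five-concentration, 48-hour dose response in 96-well plates underlies each endpoint, interpolated linearly between surrounding concentrations. TGI marks complete inhibition of growth.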

Holding throughout (assay): DTP human tumour cell line panel, 48 h
Assay [1] relates to CCRF-CEM leukemia.
The test system of assay [2] is IGROV1 ovarian.
Assay [3] has as its system M14 melanoma.
The test system of assay [4] is SF-268 CNS.
The test system of assay [5] is SNB-19 CNS.
Assay [6] concerns UO-31 renal.
Assay [7] deals with A498 renal.
The subject of assay [8] is OVCAR-3 ovarian.

For `Cc1cc(N(C)C)ccc1N=Nc1ccc2ncccc2c1`, the TGI in assay [1] was greater than 100 µM; in assay [2], greater than 100 µM; in assay [3], greater than 100 µM; in assay [4] it was greater than 100 µM; in assay [5] it was 94 µM; in assay [6], greater than 100 µM.

Turning to `Cc1ccc(C2=NN=C3C(c4ccccc4)=Nc4ccccc4N3C2)cc1`, the TGI in assay [7] is greater than 100 µM; in assay [2], greater than 100 µM; in assay [3], 34.4 µM; in assay [8], 10.4 µM; in assay [4] it was greater than 49.4 µM; in assay [5] it was greater than 78.3 µM. In assay [6], the total growth inhibition concentration (TGI) is greater than 42 µM.

With `COc1ccccc1NC(=S)NNC(=O)c1cc(-c2ccccc2)nc2ccccc12`, the TGI was 6.95 µM in assay [1]; 68.5 µM in assay [2]; 26.1 µM in assay [3]; 18.2 µM in assay [8]; 74.8 µM in assay [4]; greater than 100 µM in assay [5]. The compound also showed a concentration for total growth inhibition (TGI) in assay [6] of 24.6 µM.

On to `CC(C)(C)OC(=O)CCC1NC(=O)[C@@H]2Cc3c([nH]c4ccccc34)C(c3ccccc3)N2C1=O` (stereo partly specified), for which the TGI in assay [7] was greater than 100 µM; in assay [2], 98.7 µM; in assay [3], 87.2 µM; in assay [8], 48.5 µM; in assay [4], 75.8 µM; in assay [5] it was greater than 100 µM. Moreover, the TGI in assay [6] is greater than 100 µM.

Turning to `CCOc1ccc(-n2c(=O)c3nn4c(=O)n(-c5ccc(OCC)cc5)c(=O)c4nn3c2=O)cc1`, the TGI in assay [7] was 67.9 µM; in assay [2] it was greater than 100 µM; in assay [3], greater than 100 µM; in assay [8], greater than 100 µM; in assay [4], greater than 100 µM; in assay [5], greater than 100 µM. Besides, in assay [6], the total growth inhibition concentration (TGI) is greater than 100 µM.

Consider `CCN(CC)CCOc1ccc(N2Cc3cc(OC)c(OC)cc3C2=O)cc1`, for which the total growth inhibition concentration (TGI) in assay [7], in assay [1], in assay [2], in assay [3], in assay [8] and in assay [4] was greater than 100 µM throughout. Moreover, the total growth inhibition concentration (TGI) in assay [5] is greater than 100 µM.

As for `CC(Cc1ccc(O)cn1)(NC(=O)c1ccccc1)C(=O)O` (stereo unspecified), the TGI in assay [1], in assay [2], in assay [3], in assay [8], in assay [4] and in assay [5] was greater than 100 µM each time. The compound further registered a TGI in assay [6] greater than 100 µM.

As to `CC1(C)CC(=O)c2c(nc3c(ccc4ccccc43)c2-c2ccc(NC(=O)CCCCCCCCC(=O)Nc3ccc(-c4c5c(nc6c4ccc4ccccc46)CC(C)(C)CC5=O)cc3)cc2)C1`, the TGI in assay [1], in assay [2], in assay [3], in assay [8], in assay [4] and in assay [5] was greater than 100 µM throughout. In assay [6], this compound displayed a TGI greater than 100 µM.

Regarding `Cc1c(/C=N/NC(=S)Nc2ccc([N+](=O)[O-])cc2)c(=O)n(-c2ccccc2)n1C`, the TGI in assay [7] was 24 µM; in assay [1] it was greater than 100 µM; in assay [2], 25.9 µM; in assay [3], 28.6 µM; in assay [4] it was 26.7 µM; in assay [5], 31.8 µM. Moreover, in assay [6], the concentration for total growth inhibition (TGI) is 49.2 µM.

As to `NC(=S)Nc1c(S(N)(=O)=O)cc(S(N)(=O)=O)c(Cl)c1Cl`, the TGI in assay [1], in assay [2], in assay [3], in assay [8], in assay [4] and in assay [5] was greater than 100 µM in each case. This compound returned a TGI in assay [6] greater than 100 µM.

As for `CCc1nc2c(n1CC)C(=O)c1ccccc1C2=O`, the total growth inhibition concentration (TGI) in assay [1] is greater than 100 µM; in assay [2], greater than 100 µM; in assay [3] it was 54.9 µM; in assay [8] it was 53.9 µM; in assay [4], greater than 100 µM; in assay [5] it was greater than 100 µM.

For `CC1(C)OP(=O)(c2ccccc2)C=C1Br` (stereo unspecified), the TGI in assay [7], in assay [2], in assay [3], in assay [8], in assay [4] and in assay [5] was greater than 100 µM each time.

Consider `Cc1ccc([N+](=O)[O-])cc1S(=O)(=O)Nc1ccc(C(=O)/C=C/c2ccccc2)cc1`, for which the total growth inhibition concentration (TGI) is 69.9 µM in assay [1]; 39.6 µM in assay [2]; 43.1 µM in assay [3]; 30.7 µM in assay [8]; 73.2 µM in assay [4]; 39.6 µM in assay [5]. Also, the TGI in assay [6] was found to be 40.7 µM.

Take `COc1ccc(/C=C2\N=C(N3CCOCC3)NC2=O)cc1`: the TGI in assay [1], in assay [2], in assay [3], in assay [8], in assay [4] and in assay [5] was greater than 100 µM throughout. For the same compound, the total growth inhibition concentration (TGI) in assay [6] was greater than 100 µM.

With `CC(=O)c1cc2sc3ccccc3c2[nH]1`, the concentration for total growth inhibition (TGI) in assay [7], in assay [3], in assay [8], in assay [4], in assay [5] and in assay [6] was greater than 100 µM throughout.

On to `CC[C@H](C)[C@H](NC(=O)[C@H](Cc1ccc(O)cc1)NCC(F)(F)F)C(=O)OC(C)(C)C`, for which the TGI in assay [7] was determined as 14.8 µM; in assay [2], 16.4 µM; in assay [3], 15.1 µM; in assay [4] it was 24.6 µM; in assay [5] it was 15.8 µM; in assay [6] it was 14.8 µM.

In the case of `N#Cc1nc(/C=C/c2cccs2)oc1N`, the concentration for total growth inhibition (TGI) in assay [7], in assay [1], in assay [2], in assay [3], in assay [4] and in assay [5] was greater than 100 µM in each case. The compound also showed a total growth inhibition concentration (TGI) in assay [6] of 63.6 µM.

For the compound `CC(C)C1=CC23CCC4C(C)(C(=O)O)CCCC4(C)C2CC1C1C(=O)N(c2ccc(N4C(=O)C5C6CC7C8(C)CCCC(C)(C(=O)O)C8CCC7(C=C6C(C)C)C5C4=O)cc2)C(=O)C13` (stereo unspecified), the TGI amounted to 24.8 µM in assay [7]; 19.4 µM in assay [1]; 15.8 µM in assay [3]; 18.6 µM in assay [8]; 22.3 µM in assay [4]; 18.8 µM in assay [5]. Moreover, the TGI in assay [6] was 34 µM.
